Assay results published in patent US20100129933A1, “METHOD FOR DETECTING THE BINDING BETWEEN MDM2 AND THE PROTEASOME” (Forschungszentrum Karlsruhe GmbH, priority 2007, published 2010).
Peptide text beside a SMILES is read from it. * marks the point of attachment. Cbz = O=C(OCc1ccccc1)*

Assays:
HDM2 = target: T1, HDM2 (Homo sapiens, UniProt Q00987); experiment: Limited proteolysis of GST-HDM2 by trypsin; format: binding; conditions: 10 μM compound, 40 ng trypsin, 15 min on ice
T1 construct: made in house; host or cells: bacteria (pGEX-4T-2 vector)
T1 sequence (Q00987 whole entry): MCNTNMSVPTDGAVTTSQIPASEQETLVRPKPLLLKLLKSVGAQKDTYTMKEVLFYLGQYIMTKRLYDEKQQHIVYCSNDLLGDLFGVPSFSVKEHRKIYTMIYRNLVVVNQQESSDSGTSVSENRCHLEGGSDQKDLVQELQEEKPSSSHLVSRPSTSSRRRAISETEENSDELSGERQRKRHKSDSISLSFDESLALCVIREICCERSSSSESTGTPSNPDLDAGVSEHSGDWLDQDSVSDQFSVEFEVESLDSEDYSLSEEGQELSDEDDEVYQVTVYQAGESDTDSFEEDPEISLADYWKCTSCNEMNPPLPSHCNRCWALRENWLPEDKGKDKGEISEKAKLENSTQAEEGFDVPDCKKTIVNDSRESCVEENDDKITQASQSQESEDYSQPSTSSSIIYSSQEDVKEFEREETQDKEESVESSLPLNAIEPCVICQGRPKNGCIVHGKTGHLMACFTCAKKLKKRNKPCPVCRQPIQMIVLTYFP
Method: GST-HDM2, GST-HDMX were incubated with 10 μM of JNJ-#1 or with DMSO for control. Then 40 ng trypsin were added and the mixture was incubated for 15 min on ice. […] HDM2 was detected by incubating the membrane with the HDM2 antibodies 4B2, SMP14 and C18. Western blots were developed by ECL.
40 ng of trypsin were added and the mixture was incubated for 15 min on ice. Samples were separated by 10% SDS-PAGE gel and blotted onto Immobilon P membrane. The membrane was incubated with the anti-HDM2 antibody 4B2. The Western blot was developed by ECL.
Then 40 ng trypsin was added and the mixture was incubated for 15 min on ice. Proteolysis was stopped by addition of 2× sample buffer. Samples were loaded onto an 12 or 15% SDS-PAGE gel and HDM2 or HDMX were detected by Western blotting.

p53 ubiquitination = experiment: Cellular p53 ubiquitylation assay in U2OS cells; format: cell-based; conditions: His-tagged ubiquitin, 10 μM, 2 hours
Method: After incubation ubiquitylated proteins were purified by adsorption to Ni2+-agarose and separated by SDS-PAGE. P53 was detected by Western blotting. (TCL: Total cell lysate)
To test this option, we performed an cellular ubiquitylation assay in the presence of the compound.

In the case of CC(C)C[C@@H](C=O)NC(=O)[C@H](CC(C)C)NC(=O)[C@H](CC(C)C)NC(=O)OCc1ccccc1 [MG132] (Cbz-Leu-Leu-Leu-aldehyde), the “proteolysis of GST-HDM2 by trypsin” value (HDM2) is reported as “had no affect”.

For COc1ccc(C2=N[C@@H](c3ccc(Cl)cc3)[C@@H](c3ccc(Cl)cc3)N2C(=O)N2CCNC(=O)C2)c(OC(C)C)c1 [Nutlin-3], the “ubiquitylation of p53” value (p53 ubiquitination) was “strongly reduced”.
